Assay results as given in ChEMBL document CHEMBL1201862, “PubChem BioAssay data set” (2004).
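Compound exposure: 48 hours, 5 concentrations, 96-well plates. Abbreviation: GI50, concentration required for 50% inhibition of growth.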 Calls of active or inactive are those of the source. Rule as the data show it: active = GI50 up to about 1.1 µM and inactive = higher.

What was measured:
Assay in all cases: inhibition of tumour cell growth, NCI panel, 48 h
[1] = tested on: 786-0
[2] = tested on: A498
[3] = tested on: CAKI-1
[4] = tested on: HCT-116
[5] = tested on: HL-60
[6] = tested on: HOP-62
[7] = tested on: Hs-578T
[8] = tested on: K562
[9] = tested on: LOX IMVI
[10] = tested on: M14
[11] = tested on: MDA-MB-231
[12] = tested on: NCI-H460
[13] = tested on: NCI-H522
[14] = tested on: OVCAR-4
[15] = tested on: OVCAR-8
[16] = tested on: SK-MEL-28
[17] = tested on: SK-OV-3
[18] = tested on: UO-31
[19] = tested on: CCRF-CEM

Measured: GI50

C=CC(C)(O)/C=C/C=C(\C)C(CC1OC1(C)C)OC(=O)/C(C)=C\C (stereo not given)
inactive: [1] > 100 µM | [2] > 100 µM | [3] > 100 µM | [4] > 100 µM | [5] > 100 µM | [6] > 100 µM | [7] > 100 µM | [8] > 100 µM | [9] > 100 µM | [10] > 100 µM | [11] > 100 µM | [12] > 100 µM | [13] > 100 µM | [14] > 100 µM | [15] > 100 µM | [16] > 100 µM | [17] > 100 µM | [18] > 100 µM

O=C1CCCC2=C1CC1=C(CCCC1=O)N2c1ccc(Cl)cc1
inactive: [1] > 100 µM | [2] > 100 µM | [3] > 100 µM | [19] 69.7 µM | [4] > 100 µM | [5] 28.1 µM | [6] > 100 µM | [7] > 100 µM | [8] > 100 µM | [9] > 100 µM | [10] > 100 µM | [11] > 100 µM | [12] > 100 µM | [14] > 100 µM | [15] 97.1 µM | [16] > 100 µM | [17] > 100 µM | [18] > 100 µM

Cc1cccc(CNNC(=O)c2cc[n+]([BH2-]C#N)cc2)c1
inactive: [1] 30.7 µM | [2] 24.7 µM | [3] 32.4 µM | [19] 23.9 µM | [4] 23.3 µM | [5] 22.5 µM | [6] 38 µM | [7] 21.6 µM | [8] 26.9 µM | [9] 20.1 µM | [10] 37.9 µM | [11] 20.6 µM | [12] 36.5 µM | [14] 42 µM | [15] 24.6 µM | [16] 6.67 µM | [17] 43.6 µM | [18] 48.1 µM

S=C(N/N=C\C=N/NC(=S)N1CCCCCC1)N1CCCCCC1
inactive: [1] 14.3 µM | [2] 57.3 µM | [3] > 26.7 µM | [4] 7.73 µM | [6] 9.12 µM | [7] 32.8 µM | [8] 9.14 µM | [9] 13.5 µM | [10] 18.1 µM | [11] > 31.5 µM | [12] 3.93 µM | [13] 8.07 µM | [15] 4.65 µM | [16] > 100 µM | [17] 25.5 µM | [18] 8.22 µM

COc1cccc2[nH]c(-c3ccccn3)nc12
inactive: [1] > 100 µM | [2] > 100 µM | [3] 77.6 µM | [4] > 100 µM | [6] 74 µM | [7] 68.9 µM | [8] > 100 µM | [9] > 100 µM | [10] > 100 µM | [11] > 100 µM | [12] 86.7 µM | [13] 48.9 µM | [14] > 100 µM | [15] > 100 µM | [16] > 100 µM | [17] > 100 µM | [18] 44.8 µM

CCC1OC2C(CC=C(C)C)=C3OC(C)(O)C(C)(CC)C(OC(=O)c4ccccc4)C3=C3OC(=O)C=C1C32 (stereo not given)
inactive: [1] 41.7 µM | [2] 40.3 µM | [3] 36.6 µM | [19] 59.2 µM | [4] 32.1 µM | [5] 3.44 µM | [6] 76.2 µM | [7] 23.1 µM | [8] 39 µM | [9] 18.4 µM | [10] 45.2 µM | [11] 22.4 µM | [12] 46.9 µM | [13] 18.8 µM | [15] 39.2 µM | [16] 83.9 µM | [17] 56.4 µM | [18] 37.2 µM

CC(=O)n1c(COS(C)(=O)=O)nc2ccccc21
inactive: [1] > 100 µM | [2] > 100 µM | [3] > 100 µM | [4] > 100 µM | [6] 50.2 µM | [7] > 100 µM | [9] > 100 µM | [10] > 100 µM | [11] > 100 µM | [12] > 100 µM | [13] > 100 µM | [14] > 100 µM | [15] > 100 µM | [16] > 100 µM | [18] > 100 µM

O=C1/C(=C/c2ccc(Cl)cc2)CSc2ccccc21
inactive: [1] 17.5 µM | [2] 62.5 µM | [3] 19.4 µM | [19] 3.1 µM | [4] 2.6 µM | [5] 17.9 µM | [6] 20.5 µM | [7] 4.57 µM | [8] 3.37 µM | [9] 2.68 µM | [10] 31.8 µM | [11] 19 µM | [12] 28.7 µM | [14] 36.1 µM | [15] 20.5 µM | [16] 23.1 µM | [17] 31.8 µM | [18] 17.6 µM

N=C(N)N/N=C/c1nc2sccn2c1[N+](=O)[O-]
inactive: [1] 43 µM | [2] 56.1 µM | [3] > 100 µM | [4] 22.4 µM | [5] 6.58 µM | [6] 37.8 µM | [7] 24.7 µM | [8] 18.7 µM | [9] 21.4 µM | [10] 22.6 µM | [11] 26.2 µM | [12] 18.5 µM | [13] 21.6 µM | [14] 13.7 µM | [15] 34 µM | [16] > 100 µM | [17] 52.5 µM | [18] 65.3 µM

CCC1(c2ccc(N3C(=O)c4cc(OC)c(OC)cc4C3=O)cc2)CCC(=O)NC1=O (stereo not given)
inactive: [1] > 10 µM | [2] > 10 µM | [3] > 10 µM | [19] > 10 µM | [4] > 10 µM | [5] > 10 µM | [6] > 10 µM | [7] > 10 µM | [8] > 10 µM | [9] > 10 µM | [10] > 10 µM | [11] > 10 µM | [12] > 10 µM | [14] > 10 µM | [15] > 10 µM | [16] > 10 µM | [17] > 10 µM | [18] > 10 µM

CC(C)OC(=O)C1=C2c3ncccc3C(=O)N2[C@@H](Cl)[C@@H](Cl)[C@@H]1Cl
inactive: [1] 73.8 µM | [2] > 100 µM | [3] > 100 µM | [4] > 100 µM | [5] 25.8 µM | [6] > 100 µM | [7] 81.5 µM | [8] 33.4 µM | [9] > 100 µM | [10] > 100 µM | [11] > 100 µM | [12] > 100 µM | [13] 35.6 µM | [14] > 100 µM | [15] 39.8 µM | [16] > 100 µM | [18] > 100 µM

COc1cc(O)c2c(=O)c3c(C)cccc3n(C)c2c1
inactive: [1] > 10 µM | [2] > 10 µM | [3] > 10 µM | [19] > 10 µM | [4] > 10 µM | [6] > 10 µM | [7] > 10 µM | [8] > 10 µM | [9] > 10 µM | [10] > 10 µM | [11] > 10 µM | [12] > 10 µM | [13] > 10 µM | [14] > 10 µM | [15] > 10 µM | [16] > 10 µM | [17] > 10 µM | [18] > 10 µM

CC(C)CCc1n[nH]c(=O)n1/N=C\c1ccccc1
inactive: [1] > 100 µM | [2] 49 µM | [3] > 10 µM | [19] > 100 µM | [4] > 100 µM | [6] > 100 µM | [7] > 100 µM | [8] 83 µM | [9] > 100 µM | [10] > 100 µM | [11] > 100 µM | [12] > 100 µM | [13] 85.7 µM | [14] > 100 µM | [15] > 100 µM | [16] > 100 µM | [17] > 100 µM | [18] 26.4 µM

CN(C(=O)Cc1ccc(Cl)c(Cl)c1)[C@H]1CCCC[C@@H]1[N+]1(C)CCCC1
inactive: [1] > 100 µM | [2] > 100 µM | [3] > 100 µM | [19] 3.37 µM | [4] > 100 µM | [6] > 100 µM | [7] > 100 µM | [8] > 100 µM | [9] > 100 µM | [10] > 100 µM | [11] > 100 µM | [13] > 100 µM | [14] > 100 µM | [15] > 100 µM | [16] > 100 µM | [17] > 100 µM | [18] > 100 µM

O=C(N/N=C1\CCc2ccccc21)N/N=C1\CCc2ccccc21
inactive: [1] > 100 µM | [2] > 100 µM | [3] > 100 µM | [19] > 100 µM | [4] > 100 µM | [5] > 100 µM | [6] > 100 µM | [7] > 100 µM | [8] > 100 µM | [9] > 100 µM | [10] 13.5 µM | [11] 12.9 µM | [12] > 100 µM | [13] > 100 µM | [15] > 100 µM | [16] > 100 µM | [17] > 100 µM | [18] > 100 µM

CCOP1(=O)OCC2OC(n3cnc4c(N)ncnc43)C(O)C2O1.c1ccccc1 (stereo not given)
inactive: [1] > 100 µM | [2] > 100 µM | [3] > 100 µM | [4] > 100 µM | [5] > 100 µM | [6] > 100 µM | [7] > 100 µM | [8] > 100 µM | [9] > 100 µM | [10] > 100 µM | [11] > 100 µM | [12] > 100 µM | [13] > 100 µM | [14] > 100 µM | [15] > 100 µM | [16] > 100 µM | [17] > 100 µM | [18] > 100 µM
